From PMC6344527, “Toxicity and possible mechanisms of action of honokiol from Magnolia denudata seeds against four mosquito species” (Scientific Reports, 2019)
Converted amounts (≈) assume the structure as drawn.

Legend:
[1] = test system: whole-body homogenate from third-instar Aedes aegypti larvae (adenylate cyclase activity); assay: determination of cyclic AMP levels (octopamine-sensitive adenylate cyclase activity); assay type: biochemical; conditions: 100 μM; compared with control group / octopamine
Procedure: The method of Perumalsamy et al.[42] was used to assess the in vitro octopamine-sensitive adenylate cyclase activity of the test compounds. In brief, whole bodies of 75 Ae. aegypti larvae (106.2 mg) were homogenized in 500 µL of 2 mM Tris-maleate buffer (pH 7.4) containing 0.8 mM ethylene glycol tetraacetic acid (EGTA). The adenylate cyclase activity was determined using the cAMP Biotrak Enzymeimmunoassay system according to the manufacturer’s protocol. The assay was conducted in a total volume of 100 µL containing 80 mM Tris-maleate buffer, 5 mM theophylline, 2 mM MgSO4, 0.5 mM adenosine triphosphate (ATP), 0.2 mM EGTA, 50 µL of whole-body homogenate (equivalent to 4.12 µg protein), and 1 µL of the test compounds in Tris-maleate buffer containing 0.2% ethanol. After incubation at 20 °C for 5 min, the reaction was initiated by addition of ATP. Incubation was performed at 30 °C for 3 min in a shaking water bath. The reaction was stopped by boiling for 2 min, and then, the assay tube was cooled and centrifuged at 8,000 × g for 10 min. Fifty microliters of the supernatant were assayed for cAMP levels.
Polystyrene microplates (1 strip of 8 wells) coated with a goat anti-mouse polyclonal antibody were used. Fifty microliters of a mouse monoclonal antibody solution were added to each well except for the blank wells (or the nonspecific binding wells). The wells covered with the adhesive strip were incubated at 25 °C for 1 h in a shaking incubator (480 rpm). After washing with 400 µL of wash buffer four times, 50 μL of the two neolignan samples for cAMP determination and cAMP standard were added to wells. Control, blank (nonspecific binding), and zero standard wells were supplemented with 50 μL of a diluent RD5-55 buffer. […] The optical densities at 450 and 540 nm were determined using the microplate reader described above. The readings at 540 nm were subtracted from the readings at 450 nm. The cAMP concentrations are expressed as nmol/µg protein. The results are expressed as the means ± SEs of triplicate samples from three independent experiments.

AaAQP4 mRNA = assay: real-time qRT-PCR of target gene expression; assay type: in vivo, Aedes aegypti; conditions: fold higher than the control group; anal gills; honokiol 6.5 mg/L or magnolol 25 mg/L, 24 h
Procedure: (§1) Real-time qRT-PCR with SYBR Green dye was performed to determine whether honokiol and magnolol treatment affected the expression levels of three target genes, AaAQP4, AaV-type H^+-ATPase and AeCS1, in Ae. aegypti. […] Total RNA was extracted from the anal gills (for AaAQP4 and AaV-type H^+-ATPase) and midgut (for AeCS1) of 50 larvae using an RNeasy Mini Kit (Qiagen, Valencia, CA, USA) according to the manufacturer’s instructions. Residual genomic DNA was removed using RQ1 RNase-Free DNase (Promega, Fitchburg, WI, USA), and 1 μg of total RNA from each sample was used for complementary DNA (cDNA) synthesis with an oligo(dT) primer (Invitrogen, Grand Island, NY, USA) according to the protocol of the SuperScript III Reverse Transcriptase Kit. Real-time qRT-PCR was performed in 96-well plates using the StepOne Plus Real-Time PCR System (Applied Biosystems, Foster, CA, USA). Each reaction mixture consisted of 10 μL of the SYBR Green PCR Master Mix Kit (Applied Biosystems, Warrington, Cheshire, UK), 2 μL of the forward and reverse primers (10 pmol each), 1 μL of cDNA (25 ng) and diethylpyrocarbonate-treated water for a final volume of 20 μL. The oligonucleotide PCR primer pairs are listed in Table 9 and were purchased from Cosmo Genetech (Seoul). The cycling program included an initial hold at 95 °C for 5 min, followed by 35 cycles at 95 °C for 30 s, at 58 °C for 30 s, at 72 °C for 1 min, and an extension at 72 °C for 5 min using an Applied Bioscience Thermal Cycler. The mRNA expression levels of the target genes were normalized to the mRNA expression level of the housekeeping gene Aarps7 and analyzed by the 2^−ΔΔCT method using the Applied Biosystems StepOne Software v2.1 and DataAssist Software. The results are expressed as the means ± SEs of duplicate samples from three independent experiments.

AaV-type H^+-ATPase mRNA = assay: real-time qRT-PCR of target gene expression; assay type: in vivo, Aedes aegypti; conditions: fold higher than the control group; anal gills; honokiol 6.5 mg/L or magnolol 25 mg/L, 24 h
Procedure: as §1

AeCS1 mRNA = assay: real-time qRT-PCR of target gene expression; assay type: in vivo, Aedes aegypti; conditions: compared to control larvae; midgut; honokiol 6.5 mg/L or magnolol 25 mg/L, 24 h
Procedure: as §1

[2] = test system: third-instar larvae of insecticide-resistant Anopheles sinensis; assay: contact mortality bioassay, 24 h exposure; assay type: in vivo; conditions: Table 5, larvae resistant to deltamethrin and temephos, 24 h exposure
[3] = test system: third-instar larvae of insecticide-susceptible Aedes albopictus; assay: contact mortality bioassay, 24 h exposure; assay type: in vivo
[4] = test system: larvae of four mosquito species (Cx. pipiens pallens, Ae. aegypti, Ae. albopictus, and An. sinensis); assay: contact mortality bioassay, range over four mosquito species; assay type: in vivo; conditions: 24 h
Procedure: A contact mortality bioassay[25] was used to evaluate the toxicity of all compounds against third-instar larvae of the four mosquito species. Each test compound in methanol was suspended in DW with Triton X-100 (20 µL/L). Groups of 20 mosquito larvae were separately placed into paper cups (270 mL) containing each compound solution (250 mL). […] Negative controls consisted of a methanol–Triton X-100 solution in DW.
Treated and control (methanol–Triton X-100 solution only) larvae were maintained under the same conditions as those used for colony maintenance without providing food. Larval mortalities were determined 24 h post-treatment. […] All treatments were performed three times using 20 larvae per replicate.
The concentration of the test compounds required to produce 50% AChE inhibitory activity (IC50) was determined using the SAS 9.13 program (Cary: SAS Institute; 2014). Concentration-mortality data were subjected to probit analysis using the SAS 9.13 program. […] Statistical analyses were performed using the SAS 9.13 program. Multiple linear regression and correlation analysis were performed using the SPSS 24 program (Armonk: IBM Corp.; 2016).

[5] = set-up: method as in PMID 20877235; conditions: cited from earlier work

| SMILES | cAMP levels [1] | AaAQP4 mRNA expression levels (AaAQP4 mRNA) | AaV-type H^+-ATPase mRNA expression levels (AaV-type H^+-ATPase mRNA) | AeCS1 mRNA levels (AeCS1 mRNA) | LC50 ([2]; Anopheles sinensis, read-out: LC50 (mg/L) (95% CI)) | LC90 (mg/L) (95% CI) [2] | Slope ± SE ([2]; probit slope) | LC50 ([3]; Aedes albopictus, Table 4, 24 h exposure, read-out: LC50 (mg/L) (95% CI)) | LC90 (mg/L) (95% CI) ([3]; Table 4, 24 h exposure) | times less toxic than temephos ([3]; from 24 h LC50 values) | Slope ± SE ([3]; probit slope, Table 4, 24 h exposure) | LC50 [4] | toxicity in animal models [5] |
| --- | --- | --- | --- | --- | --- | --- | --- | --- | --- | --- | --- | --- | --- |
| C=CCc1ccc(O)c(-c2cc(CC=C)ccc2O)c1 [Magnolol, magnolol] | significantly higher than that induced by the control group | did not affect | ~14 fold | up to 503% | – | – | – | – | – | – | – | – | – |
| C=CCc1ccc(O)c(-c2ccc(O)c(CC=C)c2)c1 [Honokiol, 2-(4-hydroxy-3-prop-2-enyl-phenyl)-4-prop-2-enyl-phenol] | significantly higher than that induced by the control group | approximately 18 fold | approximately 16 fold | 82% | 7.37 mg/L (≈ 27.7 µM) | 31.45 (22.90–56.82) mg/L | 2.0 ± 0.35 | 6.13 mg/L (≈ 23 µM) | 16.52 (13.74–21.90) mg/L | 464 times | 2.9 ± 0.52 | 6.13 to 7.37 µg/mL (≈ 23 to 27.7 µM) | no toxicity or serious adverse effects |
